Experiments:
[1] = system: HeLa; assay: Antiproliferative activity against human HeLa cells assessed as inhibition of cell viability incubated for 48 hrs by CCK8 assay; type: functional, cell-based
[2] = system: HCT-116; assay: Antiproliferative activity against human HCT-116 cells assessed as inhibition of cell viability incubated for 48 hrs by CCK8 assay; type: functional, cell-based; settings: HCT-116, 48 h

| IC50 [1] [µM] | IC50 [2] [µM] | Compound |
| --- | --- | --- |
| > 50 | 14 | CCOC(=O)/C=C/N1c2nc(Cl)nc(Cl)c2N2C(c3cc(OC)c(OC)c(OC)c3)OC(C(=O)OCC)(C(=O)OCC)C12 (racemic) |
| > 50 | > 50 | CCOC(=O)/C=C/N1c2nc(Cl)nc(Cl)c2N2C(c3ccccc3)OC(COS(=O)(=O)c3ccc(C)cc3)(COS(=O)(=O)c3ccc(C)cc3)C12 (racemic) |
| 0.74 | 0.24 | C=C(C(=O)OC)N1c2nc(Cl)nc(Cl)c2N2[C@@H](c3ccccc3F)OC(C(=O)OCC)(C(=O)OCC)[C@H]12 |
| 16.6 | 7.36 | CCOC(=O)/C=C/N1c2nc(Cl)nc(Cl)c2N2C(c3cccc(Cl)c3)OC(C(=O)OCC)(C(=O)OCC)C12 (racemic) |
| 10.2 | 3.73 | CCOC(=O)/C=C/N1c2nc(Cl)nc(Cl)c2N2C(c3ccccc3I)OC(C(=O)OCC)(C(=O)OCC)C12 (racemic) |
| 2.36 | 2.18 | C=C(C(=O)OC)N1c2nc(Cl)nc(Cl)c2N2C(c3ccccc3)OC(C(=O)OCC)(C(=O)OCC)C12 (racemic) |
| 2.12 | 2.19 | CCOC(=O)/C=C/N1c2nc(Cl)nc(Cl)c2N2C(c3ccccc3F)OC(C(=O)OCC)(C(=O)OCC)C12 (racemic) |
| 18.3 | 11.4 | CCOC(=O)/C=C/N1c2nc(Cl)nc(Cl)c2N2C(c3ccccc3)OC(CO)C12 (racemic) |
| 6.57 | 11.9 | CCOC(=O)/C=C/N1c2nc(Cl)nc(Cl)c2N2C(c3ccccc3)OC(C(=O)OCC)C12 (racemic) |
| > 50 | > 50 | CCOC(=O)C1(C(=O)OCC)OC(c2ccccc2)N2c3c(Cl)nc(Cl)nc3N(/C=C/C(=O)OC(C)(C)C)C21 (racemic) |
| > 50 | 7.14 | CCOC(=O)/C=C/N1c2nc(Cl)nc(Cl)c2N2C(c3ccc(Cl)cc3)OC(C(=O)OCC)(C(=O)OCC)C12 (racemic) |
| > 50 | 7.13 | CCOC(=O)/C=C/N1c2nc(Cl)nc(Cl)c2N2C(c3ccc(C(F)(F)F)cc3)OC(C(=O)OCC)(C(=O)OCC)C12 (racemic) |
| 45.9 | 20.7 | CCOC(=O)/C=C/N1c2nc(Cl)nc(Cl)c2N2C(c3cccc(OC)c3)OC(C(=O)OCC)(C(=O)OCC)C12 (racemic) |
| 6.72 | 5.1 | CCOC(=O)/C=C/N1c2nc(Cl)nc(Cl)c2N2C(c3cccc(F)c3)OC(C(=O)OCC)(C(=O)OCC)C12 (racemic) |
| > 50 | > 50 | CCOC(=O)/C=C/N1c2nc(Cl)nc(Cl)c2N2C(c3ccccc3)OC(C(=O)OCc3ccccc3)(C(=O)OCc3ccccc3)C12 (racemic) |
| 12.6 | 6.93 | CCOC(=O)/C=C/N1c2nc(Cl)nc(Cl)c2N2C(c3ccccc3)OC(C(=O)OC)(C(=O)OC)C12 (racemic) |
| 11.7 | 7.92 | CCOC(=O)/C=C/N1c2nc(Cl)nc(Cl)c2N2C(c3cccc(Br)c3)OC(C(=O)OCC)(C(=O)OCC)C12 (racemic) |
| > 50 | > 50 | CCOC(=O)/C=C/N1c2ncnc(OC)c2N2C(c3ccccc3)OC(C(=O)OCC)(C(=O)OCC)C12 (racemic) |
| 11.2 | 14.2 | CCOC(=O)C1(C(=O)OCC)OC(c2ccccc2)N2c3c(Cl)nc(Cl)nc3N(/C=C/C(=O)OC)C21 (racemic) |
| > 50 | > 50 | CCOC(=O)/C=C/N1c2nc(Cl)nc(Cl)c2N2C(c3cccc4ccccc34)OC(C(=O)OCC)(C(=O)OCC)C12 (racemic) |
| > 50 | > 50 | CCOC(=O)C1(C(=O)OCC)OC(c2ccccc2)N2c3c(Cl)nc(Cl)nc3N(/C=C/C(=O)OCc3ccccc3)C21 (racemic) |
| 1.74 | 2.5 | C=C(C(=O)OCC)N1c2nc(Cl)nc(Cl)c2N2C(c3ccccc3)OC(C(=O)OCC)(C(=O)OCC)C12 (racemic) |

| IC50 [1] [µM] | IC50 [2] [µM] | Compound |
| --- | --- | --- |
| 2.8 | 2.47 | C=C(C(=O)OCC)N1c2nc(Cl)nc(Cl)c2N2C(c3ccccc3Cl)OC(C(=O)OCC)(C(=O)OCC)C12 (racemic) |
| 12.3 | 13.8 | CCOC(=O)/C=C/N1c2nc(Cl)nc(Cl)c2N2C(c3ccccc3)OC(C(=O)OCC)(C(=O)OCC)C12 (racemic) |
| 43.7 | 20.7 | CCOC(=O)/C=C/N1c2nc(Cl)nc(Cl)c2N2C(c3ccc(C)cc3)OC(C(=O)OCC)(C(=O)OCC)C12 (racemic) |
| 3.55 | 2.7 | CCOC(=O)/C=C/N1c2nc(Cl)nc(Cl)c2N2C(c3ccccc3Cl)OC(C(=O)OCC)(C(=O)OCC)C12 (racemic) |
| 6.52 | 4.33 | CCOC(=O)/C=C/N1c2nc(Cl)nc(Cl)c2N2C(c3cccc([N+](=O)[O-])c3)OC(C(=O)OCC)(C(=O)OCC)C12 (racemic) |
| 16.4 | 10.9 | CCOC(=O)/C=C/N1c2nc(Cl)nc(Cl)c2N2C(c3ccc(Cl)c(Cl)c3)OC(C(=O)OCC)(C(=O)OCC)C12 (racemic) |
| 15.4 | 11.2 | CCOC(=O)/C=C/N1c2nc(Cl)nc(Cl)c2N2C(c3ccccc3)OC(CO)(CO)C12 (racemic) |
| 7.16 | 6.97 | CCOC(=O)/C=C/N1c2nc(Cl)nc(Cl)c2N2C(c3ccc(F)cc3)OC(C(=O)OCC)(C(=O)OCC)C12 (racemic) |
| 12.4 | 9.84 | CCOC(=O)/C=C/N1c2nc(Cl)nc(Cl)c2N2C(c3ccccc3C)OC(C(=O)OCC)(C(=O)OCC)C12 (racemic) |
| 3.15 | 3.41 | CCOC(=O)/C=C/N1c2nc(Cl)nc(Cl)c2N2C(c3ccccc3Br)OC(C(=O)OCC)(C(=O)OCC)C12 (racemic) |
| 1.92 | 14.9 | CCOC(=O)/C=C/N1c2nc(Cl)nc(Cl)c2N2C(c3ccc(C)c(C)c3)OC(C(=O)OCC)(C(=O)OCC)C12 (racemic) |
| > 50 | 15.8 | CCOC(=O)/C=C/N1c2nc(Cl)nc(Cl)c2N2C(c3ccc(I)cc3)OC(C(=O)OCC)(C(=O)OCC)C12 (racemic) |
| 4.95 | 3.29 | CCOC(=O)/C=C/N1c2nc(Cl)nc(Cl)c2N2C(c3ccccc3C(F)(F)F)OC(C(=O)OCC)(C(=O)OCC)C12 (racemic) |
| 9.73 | 4.94 | CCOC(=O)/C=C/N1c2nc(Cl)nc(Cl)c2N2C(c3ccc([N+](=O)[O-])cc3)OC(C(=O)OCC)(C(=O)OCC)C12 (racemic) |
| 0.47 | 0.65 | C=C(C(=O)OC)N1c2nc(Cl)nc(Cl)c2N2[C@H](c3ccccc3F)OC(C(=O)OCC)(C(=O)OCC)[C@@H]12 |
| 4.78 | 6.16 | C=C(C(=O)OCC)N1c2nc(Cl)nc(Cl)c2N2C(c3ccccc3Br)OC(C(=O)OCC)(C(=O)OCC)C12 (racemic) |
| > 50 | > 50 | CCOC(=O)/C=C/N1c2ncncc2N2C(c3ccccc3)OC(C(=O)OCC)(C(=O)OCC)C12 (racemic) |
| 0.55 | 0.82 | C=C(C(=O)OCC)N1c2nc(Cl)nc(Cl)c2N2C(c3ccccc3F)OC(C(=O)OCC)(C(=O)OCC)C12 (racemic) |
| > 50 | 21.7 | CCOC(=O)/C=C/N1c2nc(Cl)nc(Cl)c2N2C(c3ccc(-c4ccccn4)cc3)OC(C(=O)OCC)(C(=O)OCC)C12 (racemic) |
| > 50 | > 50 | CCCSc1ncnc2c1N1C(c3ccccc3)OC(C(=O)OCC)(C(=O)OCC)C1N2/C=C/C(=O)OCC (racemic) |
| 13.7 | 9.32 | CCOC(=O)/C=C/N1c2nc(Cl)nc(Cl)c2N2C(c3ccc(Br)cc3)OC(C(=O)OCC)(C(=O)OCC)C12 (racemic) |
